According to publication PMC8080777, “Discovery, optimization, and evaluation of non-bile acid FXR/TGR5 dual agonists” (Scientific Reports, 2021):
Values joined by “and” are separate entries in the source; they are usually repeats but may differ in a detail not shown here. Equal entries are not always repeated.

Experiments:
FXR [1] = conditions: cited from earlier work
TGR5 [2] = biological target: T1, TGR5 (Homo sapiens, UniProt Q8TDU6); assay: TGR5 cAMP assay in CHO cells transfected with TGR5 (cAMP Hunter eXpress, Discover X); assay type: cell-based
T1 construct: host or cells: CHO cells
T1 sequence (Q8TDU6 1-330): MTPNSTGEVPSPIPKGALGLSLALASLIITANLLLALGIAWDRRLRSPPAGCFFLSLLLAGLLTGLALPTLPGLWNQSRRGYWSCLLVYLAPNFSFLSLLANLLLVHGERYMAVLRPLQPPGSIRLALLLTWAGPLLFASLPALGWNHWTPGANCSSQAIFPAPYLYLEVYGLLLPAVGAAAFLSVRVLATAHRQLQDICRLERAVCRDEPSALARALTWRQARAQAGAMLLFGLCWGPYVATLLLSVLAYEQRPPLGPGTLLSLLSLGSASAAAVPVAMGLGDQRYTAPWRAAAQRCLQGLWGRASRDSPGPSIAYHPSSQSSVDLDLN
Experimental: TGR5 agonist activity was evaluated by transfecting CHO cells with TGR5 using the Discover X expression kit (cAMP Hunter eXpress GPCR Assay, Discover X Fremont, CA). Cells were incubated with test compounds for 0.5 h, and intracellular cAMP levels were measured using the multi-mode microplate reader.
(§1) TGR5 agonist activity was evaluated by transfecting CHO cells with TGR5 using the Discover X expression kit (cAMP Hunter eXpress Assay Kit, Discover X Fremont, CA, USA). Cells were incubated with the test compounds for 0.5 h, and intracellular cAMP levels were measured using Multi-Mode Microplate Reader (FlexStation 3, Molecular Devices Inc., San Jose, CA, USA).
Each compound was tested at concentrations of 10, 1, or 0.1 µM in duplicate (n = 2), with the average value shown.
S4. In vitro, in vivo assay, and selectvity. […]
In vitro TGR5 agonist assay protocol
as §1
Each compound was tested at concentrations of 10, 1, or 0.1 µM in duplicate (n=2), with the […]
parameter logistic equation, Y = min + (max - min)/(1 + 10^(n * (log10(EC50) - log10(conc)))), in […]

TGR5 [3] = biological target: T1, TGR5; conditions: cited from earlier work
FXR [4] = biological target: T2, FXR (Homo sapiens, UniProt Q96RI1); assay: CHO cell-based FXR luciferase reporter assay (Indigo Biosciences); conditions: for FXR Efficacy (%) (1 µM) / FXR Efficacy (%) (0.1 µM) / FXR Efficacy (%) (10 µM): % vs OCA 1 µM as 100%
T2 construct: host or cells: CHO cells
T2 sequence (Q96RI1 1-486): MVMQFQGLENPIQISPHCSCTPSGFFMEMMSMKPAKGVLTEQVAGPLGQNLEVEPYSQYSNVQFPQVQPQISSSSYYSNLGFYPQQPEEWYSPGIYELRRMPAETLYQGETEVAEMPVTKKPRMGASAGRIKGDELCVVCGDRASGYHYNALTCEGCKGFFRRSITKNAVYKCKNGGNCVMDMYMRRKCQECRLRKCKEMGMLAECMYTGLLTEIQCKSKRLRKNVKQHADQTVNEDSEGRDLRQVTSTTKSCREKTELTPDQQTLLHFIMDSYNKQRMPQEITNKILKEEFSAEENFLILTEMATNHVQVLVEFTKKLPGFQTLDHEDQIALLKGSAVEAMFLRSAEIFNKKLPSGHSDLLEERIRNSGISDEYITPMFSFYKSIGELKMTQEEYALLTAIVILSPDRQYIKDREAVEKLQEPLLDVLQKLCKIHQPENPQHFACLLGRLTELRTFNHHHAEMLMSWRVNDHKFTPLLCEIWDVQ
Experimental: To evaluate direct agonist activities against FXR, test compounds were evaluated using a CHO cell-based FXR assay by Indigo Biosciences (State College, PA), in which cells were transfected with an FXR luciferase reporter system.
To directly evaluate the in vitro agonist activity towards FXR, test compounds were evaluated in CHO cells transfected with FXR responsive luciferase reporter (Nuclear Receptor & In Vitro Toxicology Solutions, Indigo Biosciences, State College, PA, USA). […] Each compound was tested in duplicate, and the average value was reported[35],[36].
(§2) The cell recovery medium (CRM, Human Farnesoid X Receptor (NR1H4, FXR reporter assay system, Indigo Biosciences, State College, PA, USA) and compound screening medium (CSM, Human Farnesoid X Receptor (NR1H4, FXR reporter assay system, Indigo Biosciences, State College, PA, USA) were removed from the freezer and thawed in a water bath at 37 °C. Test compounds were dissolved in dimethyl sulfoxide (DMSO, FUJIFILM Wako Pure Chemical Corporation, Osaka city, Osaka, Japan), and the treatment medium was prepared and diluted with CSM to achieve a final concentration of 0.2% total DMSO. The reporter cells were thawed by transferring 3.3 mL CRM at 37 °C into tubes of frozen cells. The tube containing reporter cells was recapped, and it was immediately place in a 37 °C water bath for 5 min. The reporter cells were gently inverted several times, and 100 µL cell suspension was dispensed into each well. One hundred microliters of treatment media was added into wells. Subsequently, the assay plate was kept at 37 °C, and it was incubated with 5% CO2 for 22 h. To prepare luciferase detection reagent (LDR), the detection substrate was gently mixed with detection buffer, media contents were removed from each well, and 100 µL LDR was added to each well of the assay plate. The assay plate was allowed to rest at room temperature for 5 min, and luminescence was quantified using the Multi-Mode Microplate Reader (FlexStation 3, Molecular Devices Inc., San Jose, CA, USA)[36].
S4. In vitro, in vivo assay, and selectvity.
To directly evaluate the in vitro agonist activity towards FXR, test compounds were evaluated in CHO cells transfected with FXR responsive luciferase reporter (Nuclear Receptor & In Vitro Toxicology Solutions, Indigo Biosciences, State College, PA, USA). Cells were incubated with […]
(FlexStation 3, Molecular Devices Inc., San Jose, CA, USA). Efficacies are reported relative to […]
reporter on of 1 µM. Each compound was tested in duplicate, and the average value was […]
as §2, with “sulfoxide (DMSO ,” for “sulfoxide (DMSO,”, “Osaka, Jap an),” for “Osaka, Japan),”, “a 37°C” for “a 37 °C”, “5% CO 2” for “5% CO2”, “using […]” for “using the Multi-Mode Microplate Reader (FlexStation 3, Molecular Devices Inc., San Jose, CA, USA)[36].”

Compound	FXR Efficacy (%) (1 µM) (FXR [4])	TGR5 Efficacy (%) (10 µM) (TGR5 [2]; % vs INT-767 10 µM as 100%)	TGR5 agonist activity (in words) (TGR5 [2])	also measured
Cc1cc2c(CN(C(=O)c3ccncc3C)c3ccc(F)cc3C)cccc2[nH]1 [Compound 8, reference compound]				Reported FXR activity (in words) (FXR [1]): no agonist or antagonist activity against FXR; TGR5 Efficacy (%) (0.1 µM) (TGR5 [2]; 0.1 µM, % vs INT-767 10 µM as 100%): 84.7%; TGR5 Efficacy (%) (1 µM) (TGR5 [2]; % vs INT-767 10 µM as 100%): 84.7% and 66.1%; Reported TGR5 activity (in words) (TGR5 [3]): TGR5 agonist
Cc1cnccc1C(=O)N(Cc1ccc(-c2ccc(N(C)C)cc2)cc1)c1cccc(-c2cnn(C(C)C)c2)c1F [Compound 13t]	92.6	8.3		FXR agonist activity (in words) (FXR [4]): strong FXR agonist activities
Cc1cnccc1C(=O)N(Cc1ccc(-c2ccc(N(C)C)cc2)cc1)c1cc(Cl)cc(N2CCC2)c1 [Compound 13n]	20.2	10.2		
CCc1cnccc1C(=O)N(CC12CCC(c3ccc(OC)c(C)c3)(CC1)CC2)c1cc(F)cc(Cl)c1 [Compound 20j]	71.7	71.1		FXR Efficacy (%) (0.1 µM) (FXR [4]): 13.5%; TGR5 Efficacy (%) (1 µM) (TGR5 [2]; % vs INT-767 10 µM as 100%): 21.5%
Cc1cnccc1C(=O)N(C[C@H]1CC[C@H](c2ccc(N(C)C)cc2)CC1)c1cc(Cl)cc(Cl)c1 [Compound 20b]	47.1	31.1		FXR Efficacy (%) (10 µM) (FXR [4]): 106.8%
Cc1cnccc1C(=O)N(Cc1ccc(-c2ccc(N(C)C)cc2)cc1)c1cc(Cl)cc(Cl)c1C [Compound 13r]	8.6	91.9	good potency against TGR5	
COC(=O)/C=C/c1cccc(N(Cc2ccc(-c3ccc(N(C)C)cc3)cc2)C(=O)c2ccncc2)c1 [Compound 13b]	16.7	-2.8	inactive against TGR5	FXR Efficacy (%) (10 µM) (FXR [4]): 86.9%
Cc1cc(F)ccc1N(Cc1ccc(-c2ccc(N(C)C)cc2)cc1)C(=O)c1ccncc1 [Compound 13f]	0.5	32.0		
COc1cc(Cl)cc(N(CC23CCC(c4ccc5c(c4)OCO5)(CC2)CC3)C(=O)c2ccncc2C)c1 [Compound 20o]	97.6	78.9		FXR Efficacy (%) (0.1 µM) (FXR [4]): 29.4%; TGR5 Efficacy (%) (1 µM) (TGR5 [2]; % vs INT-767 10 µM as 100%): 36.0%
COC(=O)/C=C/c1cccc(N(Cc2ccc(-c3ccc(N(C)C)cc3)cc2)C(=O)c2ccncc2C)c1C [Compound 13i]	32.1	47.2	weak FXR/TGR5 dual agonist activity	FXR agonist activity (in words) (FXR [4]): weak FXR/TGR5 dual agonist activity
COc1ccc(C(=O)N(Cc2ccc(-c3ccc(N(C)C)cc3)cc2)c2cc(Cl)cc(Cl)c2)c(Cl)c1 [Compound 13ag]	136.5	1.1	significantly low potency against TGR5	FXR agonist activity (in words) (FXR [4]): strong FXR activities
COc1ccc(C2C3CCC2CC(CN(C(=O)c2ccncc2C)c2cc(Cl)cc(Cl)c2)C3)cc1C (stereo not drawn) [Compound 20g]	51.1	-5.2		
Cc1cnccc1C(=O)N(Cc1ccc(-c2ccc(N(C)C)cc2)cc1)c1cccc(-c2cnn(C(C)C)c2)c1C [Compound 13s]	61.0	24.1	moderate FXR/TGR5 agonist activity	FXR agonist activity (in words) (FXR [4]): moderate FXR/TGR5 agonist activity
COC(=O)/C=C/c1cc(Cl)cc(N(Cc2ccc(-c3ccc(N(C)C)cc3)cc2)C(=O)c2ccncc2C)c1 [Compound 13m]	72.5	6.7		
